According to ChEMBL document CHEMBL3045941, “-Methyl as a bioisostere for the oxygen link between the aromatic rings of aryloxyphenoxypropionate herbicides” (Bioorg Med Chem Lett, 1997):
The source made the active and inactive calls. The rule behind the calls is not given here.

Legend:
Echinochloa crus-galli [1] = test: Post-emergent herbicidal activity against Echinochloa crus-galli (barnyard grass) at <2 g/ha measured after 13 days under green house conditions; assay type: functional, organism-based
Echinochloa crus-galli [2] = test: Post-emergent herbicidal activity against Echinochloa crus-galli (barnyard grass) at 500 g/ha measured after 13 days under green house conditions; assay type: functional
Setaria viridis [3] = test: Post-emergent herbicidal activity against Setaria viridis (green foxtail) at <2 g/ha measured after 13 days under green house conditions; assay type: functional, organism-based
Sorghum halepense [4] = test: Post-emergent herbicidal activity against Sorghum halepense (Johnson grass) at 500 g/ha measured after 13 days under green house conditions; assay type: functional
Avena fatua [5] = test: Post-emergent herbicidal activity against Avena fatua at <2 g/ha measured after 13 days under green house conditions; assay type: functional, organism-based
Avena fatua [6] = test: Post-emergent herbicidal activity against Avena fatua at 500 g/ha measured after 13 days under green house conditions; assay type: functional
Triticum aestivum [7] = test: Phytotoxicity against Triticum aestivum (wheat) at two to four-leaf growth stage at <2 g/ha measured after 13 days under green house conditions; assay type: organism-based; conditions: in vivo, 312 h
Triticum aestivum [8] = test: Phytotoxicity against Triticum aestivum (wheat) plant at two to four-leaf growth stage at 500 g/ha measured after 13 days under green house conditions; assay type: organism-based; conditions: in vivo, 312 h
Oryza sativa [9] = test: Phytotoxicity against Oryza sativa (rice) plant at two to four-leaf growth stage at <2 g/ha measured after 13 days under green house conditions; assay type: organism-based; conditions: in vivo, 312 h
Sorghum halepense [10] = test: Post-emergent herbicidal activity against Sorghum halepense (Johnson grass) at <2 g/ha measured after 13 days under green house conditions; assay type: functional, organism-based
Setaria viridis [11] = test: Post-emergent herbicidal activity against Setaria viridis (green foxtail) at 500 g/ha measured after 13 days under green house conditions; assay type: functional
Oryza sativa [12] = test: Phytotoxicity against Oryza sativa (rice) plant at two to four-leaf growth stage at 500 g/ha measured after 13 days under green house conditions; assay type: organism-based; conditions: in vivo, 312 h
Zea mays [13] = test: Phytotoxicity against Zea mays (maize) plant at two to four-leaf growth stage at <2 g/ha measured after 13 days under green house conditions; assay type: organism-based; conditions: in vivo, 312 h
Zea mays [14] = test: Phytotoxicity against Zea mays (maize) plant at two to four-leaf growth stage at 500 g/ha measured after 13 days under green house conditions; assay type: organism-based; conditions: in vivo, 312 h
Echinochloa crus-galli [15] = test: Post-emergent herbicidal activity against Echinochloa crus-galli (barnyard grass) at 50 g/ha measured after 13 days under green house conditions; assay type: functional
Setaria viridis [16] = test: Post-emergent herbicidal activity against Setaria viridis (green foxtail) at 50 g/ha measured after 13 days under green house conditions; assay type: functional
Sorghum halepense [17] = test: Post-emergent herbicidal activity against Sorghum halepense (Johnson grass) at 50 g/ha measured after 13 days under green house conditions; assay type: functional
Avena fatua [18] = test: Post-emergent herbicidal activity against Avena fatua at 50 g/ha measured after 13 days under green house conditions; assay type: functional
Triticum aestivum [19] = test: Phytotoxicity against Triticum aestivum (wheat) at two to four-leaf growth stage at 50 g/ha measured after 13 days under green house conditions; assay type: organism-based; conditions: in vivo, 312 h
Oryza sativa [20] = test: Phytotoxicity against Oryza sativa (rice) plant at two to four-leaf growth stage at 50 g/ha measured after 13 days under green house conditions; assay type: organism-based; conditions: in vivo, 312 h
Zea mays [21] = test: Phytotoxicity against Zea mays (maize) plant at two to four-leaf growth stage at 50 g/ha measured after 13 days under green house conditions; assay type: organism-based; conditions: in vivo, 312 h

SMILES	Activity (Echinochloa crus-galli [1])	Activity (Echinochloa crus-galli [2])	Activity (Setaria viridis [3])	Activity (Sorghum halepense [4])	Activity (Avena fatua [5])	Activity (Avena fatua [6])	Activity (Triticum aestivum [7])	Activity (Triticum aestivum [8])	Activity (Oryza sativa [9])	Activity (Sorghum halepense [10])	Activity (Setaria viridis [11])	Activity (Oryza sativa [12])	Activity (Zea mays [13])	Activity (Zea mays [14])	also measured
COC(=O)C(C)Oc1ccc(Oc2ncc3cc(Cl)ccc3n2)cc1 (racemic)	inactive	85%	inactive	85%	inactive	0%	Non-toxic	0%	Non-toxic	inactive	65%	0%	Non-toxic	15%	
COC(=O)C(C)Oc1ccc(Oc2ccc(Cl)cc2Cl)cc1 (racemic) [DICLOFOP-METHYL]	inactive	100%	inactive	70%	inactive	70%	Non-toxic	0%	Non-toxic	inactive	100%	0%	Non-toxic	85%	
CCOC(=O)C(C)Oc1ccc(Oc2cc3ccc(Cl)cc3cn2)cc1 (racemic)	inactive	100%	inactive	100%	inactive	85%	Non-toxic	85%	Non-toxic	inactive	85%	70%	Non-toxic	70%	
COC(=O)C(C)Oc1ccc(N(C)c2ccc3cc(Cl)ccc3n2)cc1 (racemic)	inactive	100%	inactive	100%	inactive	70%	Non-toxic	85%	Non-toxic	inactive	85%	30%	Non-toxic	100%	
COC(=O)C(C)Oc1ccc(Oc2ccc3cc(Cl)ccc3n2)cc1 (racemic)	inactive	100%	inactive	100%	inactive	85%	Non-toxic	85%	Non-toxic	inactive	100%	85%	Non-toxic	100%	
CCCCOC(=O)C(C)Oc1ccc(Oc2ccc(C(F)(F)F)cn2)cc1 (racemic)	inactive		inactive		inactive		Non-toxic		Non-toxic	inactive			Non-toxic		Activity (Echinochloa crus-galli [15]): 85%; Activity (Setaria viridis [16]): 85%; Activity (Sorghum halepense [17]): 85%; Activity (Avena fatua [18]): 85%; Activity (Triticum aestivum [19]): 70%; Activity (Oryza sativa [20]): 50%; Activity (Zea mays [21]): 85%
COC(=O)C(C)Oc1ccc(N(C)c2ccc(C(F)(F)F)cn2)cc1 (racemic)	inactive	50%	inactive	0%	inactive	0%	Non-toxic	30%	Non-toxic	inactive	0%	0%	Non-toxic	30%	
